Reference: patent US20250231185A1, “Coronavirus T Cell Epitopes, Megapools and Uses Thereof” (La Jolla Institute for Immunology, priority 2021, published 2025)

These substances were tested on CD4+ T cells (assay: Meta-analysis of published SARS-CoV-2 CD4 T cell epitope data curated in the IEDB (25 studies)). Conditions: CD4R (D) Megapool, non-spike antigens; dominant = recognized in 3 or more donors/studies.
Format: cell-based, human

Q: 2292 (MWLSYFIASFRLFAR) [compound 2292] was tested. Which Dominant did it give?
A: Its Dominant is “Yes (more dominant epitopes are defined by being recognized by 3 or more donors/different studies)”.

Q: For 2293 (TNILLNVPLHGTILT) [compound 2293], which Dominant is on record?
A: The Dominant was “Yes (more dominant epitopes are defined by being recognized by 3 or more donors/different studies)”.

Q: Which Dominant does the source give for 2294 (SELVIGAVILRGHLR) [compound 2294] here?
A: Its Dominant is “Yes (more dominant epitopes are defined by being recognized by 3 or more donors/different studies)”.

Q: Which Dominant does the source give for “2295 (GAVILRGHLRIAGHHLGR) [compound 2295]” here?
A: The Dominant was “Yes (more dominant epitopes are defined by being recognized by 3 or more donors/different studies)”.

Q: How did the Dominant turn out when 2296 (LRGHLRIAGHHLGRC) [compound 2296] was run?
A: Its Dominant is “Yes (more dominant epitopes are defined by being recognized by 3 or more donors/different studies)”.

Q: Which Dominant does the source give for 2297 (RGHLRIAGHHLGRCD) [compound 2297] here?
A: The Dominant was “Yes (more dominant epitopes are defined by being recognized by 3 or more donors/different studies)”.

Q: Which Dominant does the source give for 2298 (IAGHHLGRCDIKDLP) [compound 2298] here?
A: The Dominant was “Yes (more dominant epitopes are defined by being recognized by 3 or more donors/different studies)”.

Q: Which Dominant does the source give for 2300 (IKDLPKEITVATSRT) [compound 2300] here?
A: The Dominant was “Yes (more dominant epitopes are defined by being recognized by 3 or more donors/different studies)”.

Q: With 2301 (KEITVATSRTLSYYK) [compound 2301] as the substance, how does the Dominant read?
A: Its Dominant is “Yes (more dominant epitopes are defined by being recognized by 3 or more donors/different studies)”.

Q: Which Dominant does the source give for “2302 (TSRTLSYYKLGASQRVA) [compound 2302]” here?
A: The Dominant was “Yes (more dominant epitopes are defined by being recognized by 3 or more donors/different studies)”.

Q: How did the Dominant turn out when 2303 (SRTLSYYKLGASQRV) [compound 2303] was run?
A: The Dominant was “Yes (more dominant epitopes are defined by being recognized by 3 or more donors/different studies)”.

Q: For 2305 (SYYKLGASQRVAGDS) [compound 2305], which Dominant is on record?
A: The Dominant was “Yes (more dominant epitopes are defined by being recognized by 3 or more donors/different studies)”.

Q: 2306 (LGASQRVAGDSGFAA) [compound 2306] was tested. Which Dominant did it give?
A: Its Dominant is “Yes (more dominant epitopes are defined by being recognized by 3 or more donors/different studies)”.

Q: Which Dominant does the source give for 2307 (SGFAAYSRYRIGNYK) [compound 2307] here?
A: The Dominant was “Yes (more dominant epitopes are defined by being recognized by 3 or more donors/different studies)”.

Q: How did the Dominant turn out when 2308 (ASWFTALTQHGKEDL) [compound 2308] was run?
A: The Dominant was “Yes (more dominant epitopes are defined by being recognized by 3 or more donors/different studies)”.

Q: For 2309 (SWFTALTQHGKEDLK) [compound 2309], which Dominant is on record?
A: The Dominant was “Yes (more dominant epitopes are defined by being recognized by 3 or more donors/different studies)”.

Q: For 2310 (DDQIGYYRRATRRIR) [compound 2310], which Dominant is on record?
A: Its Dominant is “Yes (more dominant epitopes are defined by being recognized by 3 or more donors/different studies)”.

Q: For 2311 (IGYYRRATRRIRGGD) [compound 2311], which Dominant is on record?
A: The Dominant was “Yes (more dominant epitopes are defined by being recognized by 3 or more donors/different studies)”.

Q: Which Dominant does the source give for 2312 (YYRRATRRIRGGDGK) [compound 2312] here?
A: The Dominant was “Yes (more dominant epitopes are defined by being recognized by 3 or more donors/different studies)”.

Q: 2314 (RWYFYYLGTGPEAGL) [compound 2314] was tested. Which Dominant did it give?
A: Its Dominant is “Yes (more dominant epitopes are defined by being recognized by 3 or more donors/different studies)”.

Q: For 2315 (NKDGIIWVATEGALN) [compound 2315], which Dominant is on record?
A: Its Dominant is “Yes (more dominant epitopes are defined by being recognized by 3 or more donors/different studies)”.

Q: 2316 (KDGIIWVATEGALNT) [compound 2316] was tested. Which Dominant did it give?
A: The Dominant was “Yes (more dominant epitopes are defined by being recognized by 3 or more donors/different studies)”.

Q: With 2317 (AIVLQLPQGTTLPKG) [compound 2317] as the substance, how does the Dominant read?
A: Its Dominant is “Yes (more dominant epitopes are defined by being recognized by 3 or more donors/different studies)”.

Q: For 2318 (AGNGGDAALALLLLD) [compound 2318], which Dominant is on record?
A: The Dominant was “Yes (more dominant epitopes are defined by being recognized by 3 or more donors/different studies)”.

Q: How did the Dominant turn out when 2319 (DAALALLLLDRLNQL) [compound 2319] was run?
A: Its Dominant is “Yes (more dominant epitopes are defined by being recognized by 3 or more donors/different studies)”.

Q: Which Dominant does the source give for 2320 (LLLLDRLNQLESKMS) [compound 2320] here?
A: The Dominant was “Yes (more dominant epitopes are defined by being recognized by 3 or more donors/different studies)”.

Q: Which Dominant does the source give for 2321 (AAEASKKPRQKRTAT) [compound 2321] here?
A: The Dominant was “Yes (more dominant epitopes are defined by being recognized by 3 or more donors/different studies)”.

Q: With 2322 (KKPRQKRTATKAYNV) [compound 2322] as the substance, how does the Dominant read?
A: Its Dominant is “Yes (more dominant epitopes are defined by being recognized by 3 or more donors/different studies)”.

Q: With 2323 (KRTATKAYNVTQAFG) [compound 2323] as the substance, how does the Dominant read?
A: Its Dominant is “Yes (more dominant epitopes are defined by being recognized by 3 or more donors/different studies)”.

Q: With 2325 (LIRQGTDYKHWPQIA) [compound 2325] as the substance, how does the Dominant read?
A: The Dominant was “Yes (more dominant epitopes are defined by being recognized by 3 or more donors/different studies)”.

Q: Which Dominant does the source give for 2326 (YKHWPQIAQFAPSAS) [compound 2326] here?
A: The Dominant was “Yes (more dominant epitopes are defined by being recognized by 3 or more donors/different studies)”.

Q: For 2327 (WPQIAQFAPSASAFF) [compound 2327], which Dominant is on record?
A: The Dominant was “Yes (more dominant epitopes are defined by being recognized by 3 or more donors/different studies)”.

Q: Which Dominant does the source give for 2328 (ASAFFGMSRIGMEVT) [compound 2328] here?
A: The Dominant was “Yes (more dominant epitopes are defined by being recognized by 3 or more donors/different studies)”.

Q: For “2329 (GMEVTPSGTWLTYTGAIKLD) [compound 2329]”, which Dominant is on record?
A: Its Dominant is “Yes (more dominant epitopes are defined by being recognized by 3 or more donors/different studies)”.

Q: How did the Dominant turn out when 2330 (PSGTWLTYTGAIKLD) [compound 2330] was run?
A: Its Dominant is “Yes (more dominant epitopes are defined by being recognized by 3 or more donors/different studies)”.

Q: Which Dominant does the source give for 2331 (GTWLTYTGAIKLDDK) [compound 2331] here?
A: The Dominant was “Yes (more dominant epitopes are defined by being recognized by 3 or more donors/different studies)”.

Q: How did the Dominant turn out when 2332 (FKDQVILLNKHIDAY) [compound 2332] was run?
A: Its Dominant is “Yes (more dominant epitopes are defined by being recognized by 3 or more donors/different studies)”.

Q: For 2333 (ILLNKHIDAYKTFPP) [compound 2333], which Dominant is on record?
A: The Dominant was “Yes (more dominant epitopes are defined by being recognized by 3 or more donors/different studies)”.

Q: 2345 (QEEVQELYSPIFLIV) [compound 2345] was tested. Which Dominant did it give?
A: Its Dominant is “Yes (more dominant epitopes are defined by being recognized by 3 or more donors/different studies)”.

Same assay, conditions: CD4RE megapool peptides (non-spike SARS-CoV-2 CD4 epitopes); dominant = recognized by 3 or more donors/different studies

Q: How did the Dominant turn out when 2616 (FYVYSRVKNLNSSRV) [compound 2616] was run?
A: Its Dominant is “Yes (more dominant epitopes are defined by being recognized by 3 or more donors/different studies)”.

Q: 2617 (QFAYANRNRFLYIIK) [compound 2617] was tested. Which Dominant did it give?
A: The Dominant was “Yes (more dominant epitopes are defined by being recognized by 3 or more donors/different studies)”.

Q: Which Dominant does the source give for 2618 (VLAAVYRINWITGGI) [compound 2618] here?
A: Its Dominant is “Yes (more dominant epitopes are defined by being recognized by 3 or more donors/different studies)”.

Q: How did the Dominant turn out when 2619 (YRINWITGGIAIAMA) [compound 2619] was run?
A: The Dominant was “Yes (more dominant epitopes are defined by being recognized by 3 or more donors/different studies)”.

Q: 2620 (CLVGLMWLSYFIASF) [compound 2620] was tested. Which Dominant did it give?
A: The Dominant was “Yes (more dominant epitopes are defined by being recognized by 3 or more donors/different studies)”.

Q: 2621 (MWLSYFIASFRLFAR) [compound 2621] was tested. Which Dominant did it give?
A: Its Dominant is “Yes (more dominant epitopes are defined by being recognized by 3 or more donors/different studies)”.
